In ChEMBL document CHEMBL5465560, “Selectivity Literature for EUbOPEN Chemogenomic Library” (2024):

Experiments:
[1] = target: Ribosomal protein S6 kinase alpha-2 (Homo sapiens) (UniProt Q15349); experiment: Selectivity interaction (Kinome Scan (DiscoverX)) EUB0000229b RPS6KA2; conditions: at 10 µM
[2] = target: TGF-beta receptor type-2 (Homo sapiens) (UniProt P37173); experiment: Selectivity interaction (KinomeScan (DiscoverX)) EUB0000229b TGFBR2; conditions: at 10 µM
[3] = target: T1, Protein kinase C zeta type (Homo sapiens) (UniProt Q05513); experiment: Selectivity interaction (ProQinase) EUB0000171b PRKCZ; conditions: at 5 µM
T1 sequence (whole entry): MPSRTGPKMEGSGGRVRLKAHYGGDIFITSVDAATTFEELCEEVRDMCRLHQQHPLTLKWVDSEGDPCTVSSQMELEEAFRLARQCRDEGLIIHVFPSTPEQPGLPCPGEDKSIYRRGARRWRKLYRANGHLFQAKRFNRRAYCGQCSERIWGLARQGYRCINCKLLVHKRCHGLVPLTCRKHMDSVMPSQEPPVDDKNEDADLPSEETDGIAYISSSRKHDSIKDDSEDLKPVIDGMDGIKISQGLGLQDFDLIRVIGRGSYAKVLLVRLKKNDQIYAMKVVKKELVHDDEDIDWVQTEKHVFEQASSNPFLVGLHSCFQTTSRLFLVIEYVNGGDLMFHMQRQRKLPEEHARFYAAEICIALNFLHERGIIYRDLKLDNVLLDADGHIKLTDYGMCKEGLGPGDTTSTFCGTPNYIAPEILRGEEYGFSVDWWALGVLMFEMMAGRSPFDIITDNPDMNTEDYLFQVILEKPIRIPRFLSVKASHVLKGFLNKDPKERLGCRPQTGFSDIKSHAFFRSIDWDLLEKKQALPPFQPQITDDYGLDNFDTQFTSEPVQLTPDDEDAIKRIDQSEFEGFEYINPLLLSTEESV

[4] = target: Dual specificity testis-specific protein kinase 1 (Homo sapiens) (UniProt Q15569); experiment: Selectivity interaction (KinomeScan (DiscoverX)) EUB0000666a TESK1; conditions: at 10 µM
Sequence of Dual specificity testis-specific protein kinase 1 (Homo sapiens) (Q15569 whole entry, looked up): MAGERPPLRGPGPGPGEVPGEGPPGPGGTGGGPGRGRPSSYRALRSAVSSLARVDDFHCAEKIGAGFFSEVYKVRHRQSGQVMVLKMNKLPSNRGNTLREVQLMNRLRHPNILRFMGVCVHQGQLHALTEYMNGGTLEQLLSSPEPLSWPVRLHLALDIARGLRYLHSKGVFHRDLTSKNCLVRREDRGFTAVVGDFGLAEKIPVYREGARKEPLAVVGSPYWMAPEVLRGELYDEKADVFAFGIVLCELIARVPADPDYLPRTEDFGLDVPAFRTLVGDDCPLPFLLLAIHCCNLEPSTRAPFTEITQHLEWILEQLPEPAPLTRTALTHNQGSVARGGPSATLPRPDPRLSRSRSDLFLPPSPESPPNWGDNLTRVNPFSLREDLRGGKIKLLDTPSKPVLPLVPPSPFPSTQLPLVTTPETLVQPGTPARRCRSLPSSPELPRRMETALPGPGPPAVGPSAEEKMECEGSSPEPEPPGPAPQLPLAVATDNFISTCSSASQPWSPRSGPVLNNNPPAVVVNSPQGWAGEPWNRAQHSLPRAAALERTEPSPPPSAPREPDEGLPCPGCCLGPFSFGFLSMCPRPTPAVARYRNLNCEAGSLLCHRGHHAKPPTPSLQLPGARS

[5] = target: Cyclin-dependent kinase 20 (Homo sapiens) (UniProt Q8IZL9); experiment: Selectivity interaction (ActivX KiNativ screen (kinase selectivity in THP-1 cell lysates)) EUB0000639a CDK20; assay type: subcellular; conditions: lysate
Sequence of Cyclin-dependent kinase 20 (Homo sapiens) (Q8IZL9 whole entry): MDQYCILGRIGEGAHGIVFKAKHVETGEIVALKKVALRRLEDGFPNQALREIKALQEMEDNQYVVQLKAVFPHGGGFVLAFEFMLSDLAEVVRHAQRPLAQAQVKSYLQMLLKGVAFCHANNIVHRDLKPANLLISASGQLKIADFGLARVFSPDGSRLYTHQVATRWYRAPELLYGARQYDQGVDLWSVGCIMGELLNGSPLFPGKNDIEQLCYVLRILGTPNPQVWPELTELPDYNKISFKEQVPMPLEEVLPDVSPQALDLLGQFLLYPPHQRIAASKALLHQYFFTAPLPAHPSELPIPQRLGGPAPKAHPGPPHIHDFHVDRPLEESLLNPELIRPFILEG

[6] = Selectivity interaction (KinomeScan (DiscoverX)) EUB0000607a CDPK1; conditions: at 10 µM
[7] = target: T2, Tyrosine-protein kinase ZAP-70 (Homo sapiens) (UniProt P43403); experiment: Selectivity interaction (KinomeScan (DiscoverX)) EUB0000607a ZAP70; conditions: at 10 µM
T2 sequence (whole entry): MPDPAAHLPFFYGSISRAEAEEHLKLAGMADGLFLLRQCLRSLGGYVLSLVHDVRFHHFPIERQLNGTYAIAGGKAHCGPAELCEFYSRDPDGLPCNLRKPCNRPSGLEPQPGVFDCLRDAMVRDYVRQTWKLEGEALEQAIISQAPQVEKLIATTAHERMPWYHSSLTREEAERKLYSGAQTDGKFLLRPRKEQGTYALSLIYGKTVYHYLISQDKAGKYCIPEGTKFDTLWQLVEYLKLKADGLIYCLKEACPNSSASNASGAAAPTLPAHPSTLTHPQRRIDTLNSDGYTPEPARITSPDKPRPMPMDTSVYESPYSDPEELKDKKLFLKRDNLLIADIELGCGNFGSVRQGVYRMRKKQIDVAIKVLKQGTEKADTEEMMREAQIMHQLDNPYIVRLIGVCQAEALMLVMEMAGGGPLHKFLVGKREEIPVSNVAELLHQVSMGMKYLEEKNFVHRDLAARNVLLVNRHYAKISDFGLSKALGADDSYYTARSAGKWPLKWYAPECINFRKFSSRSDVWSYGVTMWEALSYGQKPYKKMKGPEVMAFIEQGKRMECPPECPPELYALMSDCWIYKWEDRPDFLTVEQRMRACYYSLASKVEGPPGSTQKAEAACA

[8] = target: Serine/threonine-protein kinase RIO2 (Homo sapiens) (UniProt Q9BVS4); experiment: Selectivity interaction (KinomeScan (DiscoverX)) EUB0000695a RIOK2; conditions: at 100 nM
Sequence of Serine/threonine-protein kinase RIO2 (Homo sapiens) (Q9BVS4 whole entry, looked up): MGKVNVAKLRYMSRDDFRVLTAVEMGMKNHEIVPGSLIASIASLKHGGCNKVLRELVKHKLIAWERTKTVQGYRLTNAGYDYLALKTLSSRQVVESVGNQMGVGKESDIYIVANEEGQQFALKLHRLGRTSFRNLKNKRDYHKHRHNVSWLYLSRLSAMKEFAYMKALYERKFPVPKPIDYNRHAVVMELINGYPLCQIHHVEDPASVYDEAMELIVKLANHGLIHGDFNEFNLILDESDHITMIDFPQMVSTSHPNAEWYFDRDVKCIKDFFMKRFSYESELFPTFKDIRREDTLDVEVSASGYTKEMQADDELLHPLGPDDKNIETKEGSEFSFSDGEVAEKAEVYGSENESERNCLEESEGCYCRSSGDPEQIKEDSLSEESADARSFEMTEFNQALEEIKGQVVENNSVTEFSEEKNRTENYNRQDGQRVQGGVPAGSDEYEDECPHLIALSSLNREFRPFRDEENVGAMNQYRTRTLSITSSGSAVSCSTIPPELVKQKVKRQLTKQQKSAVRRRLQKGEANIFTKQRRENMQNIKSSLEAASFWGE

[9] = target: Dual specificity protein kinase CLK3 (Homo sapiens, UniProt P49761); conditions: at 10 µM
Sequence of Dual specificity protein kinase CLK3 (P49761 whole entry, looked up): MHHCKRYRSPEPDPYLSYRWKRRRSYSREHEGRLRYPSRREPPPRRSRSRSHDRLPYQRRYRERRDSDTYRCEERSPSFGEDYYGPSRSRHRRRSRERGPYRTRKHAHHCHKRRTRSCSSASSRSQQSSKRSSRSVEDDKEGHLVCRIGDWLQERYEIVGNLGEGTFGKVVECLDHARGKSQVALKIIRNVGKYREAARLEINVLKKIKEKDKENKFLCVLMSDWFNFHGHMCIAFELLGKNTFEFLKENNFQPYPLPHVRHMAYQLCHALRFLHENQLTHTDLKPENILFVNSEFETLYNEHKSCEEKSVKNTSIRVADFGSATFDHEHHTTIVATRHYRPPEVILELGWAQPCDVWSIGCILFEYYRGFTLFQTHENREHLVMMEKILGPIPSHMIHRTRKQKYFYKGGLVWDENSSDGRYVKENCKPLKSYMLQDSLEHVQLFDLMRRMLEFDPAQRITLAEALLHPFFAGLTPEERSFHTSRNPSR

Sequence of Ribosomal protein S6 kinase alpha-2 (Homo sapiens) (Q15349 whole entry): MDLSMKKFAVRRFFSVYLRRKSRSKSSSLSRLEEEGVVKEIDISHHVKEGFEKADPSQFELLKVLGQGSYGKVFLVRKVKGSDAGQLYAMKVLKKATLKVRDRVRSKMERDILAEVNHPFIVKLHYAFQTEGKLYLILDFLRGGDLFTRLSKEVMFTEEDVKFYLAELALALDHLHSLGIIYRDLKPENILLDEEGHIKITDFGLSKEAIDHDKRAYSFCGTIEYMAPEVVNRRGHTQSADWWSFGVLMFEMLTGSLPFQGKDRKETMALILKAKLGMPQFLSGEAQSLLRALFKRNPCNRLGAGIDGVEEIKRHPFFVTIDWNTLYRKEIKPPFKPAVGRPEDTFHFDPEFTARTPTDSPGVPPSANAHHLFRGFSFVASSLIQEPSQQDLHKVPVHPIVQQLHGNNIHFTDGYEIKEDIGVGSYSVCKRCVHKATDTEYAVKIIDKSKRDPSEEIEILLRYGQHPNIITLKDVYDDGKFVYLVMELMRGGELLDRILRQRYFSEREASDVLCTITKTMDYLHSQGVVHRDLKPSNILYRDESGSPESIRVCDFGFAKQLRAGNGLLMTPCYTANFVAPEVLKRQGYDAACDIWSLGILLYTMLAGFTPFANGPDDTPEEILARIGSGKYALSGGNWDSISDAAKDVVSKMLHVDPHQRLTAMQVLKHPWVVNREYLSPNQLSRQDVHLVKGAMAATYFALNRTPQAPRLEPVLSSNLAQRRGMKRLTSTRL
Sequence of TGF-beta receptor type-2 (Homo sapiens) (P37173 whole entry): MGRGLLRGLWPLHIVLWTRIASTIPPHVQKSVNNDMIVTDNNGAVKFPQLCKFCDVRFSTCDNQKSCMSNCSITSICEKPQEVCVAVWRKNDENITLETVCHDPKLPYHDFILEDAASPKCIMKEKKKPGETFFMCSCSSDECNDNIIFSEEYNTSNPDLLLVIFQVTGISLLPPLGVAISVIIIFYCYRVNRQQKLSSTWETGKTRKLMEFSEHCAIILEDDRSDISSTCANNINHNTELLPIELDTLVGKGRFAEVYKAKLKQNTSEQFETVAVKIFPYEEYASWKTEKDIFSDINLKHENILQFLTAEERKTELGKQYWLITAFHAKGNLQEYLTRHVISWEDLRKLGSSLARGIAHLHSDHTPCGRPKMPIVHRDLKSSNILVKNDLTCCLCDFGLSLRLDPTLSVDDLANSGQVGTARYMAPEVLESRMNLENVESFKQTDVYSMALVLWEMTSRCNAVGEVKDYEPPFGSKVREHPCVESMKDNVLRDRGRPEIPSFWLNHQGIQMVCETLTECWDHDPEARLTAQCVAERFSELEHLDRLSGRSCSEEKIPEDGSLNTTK

`COc1cc(N(C)c2ccnc3ccc(C(F)(F)F)cc23)cc(OC)c1OC` gave a % binding [1] of 74% and a % binding [2] of 94%.
For `C=CC(=O)Nc1cccc(C(=O)Nc2ccc(Nc3cc(-c4[nH]c(SC)nc4C)ccn3)cc2)c1`, the % of control [3] was 68%.
For `O=C(NOC[C@H](O)CO)c1ccc(F)c(F)c1Nc1ccc(I)cc1F`, the % of control [4] was 98%.
Molecule `CC[C@@H]1[C@H](F)C(=O)N[C@@H]1COc1nccc2cc(C(N)=O)c(OC)cc12` [ZIMLOVISERTIB] has a % of inhibition ([5]; at 0.01 µM) of 6.4%, a % of inhibition ([5]; at 0.04 µM) of -8.7% and a % of inhibition ([5]; at 0.2 µM) of -2%. The % of inhibition ([5]; at 1 µM) was -0.8% and the % of inhibition ([5]; at 5 µM) was -1.4%.
With `CNC(=O)Nc1ccc(-c2nc(N3CC4CCC(C3)O4)c3cnn(C4CCC5(CC4)OCCO5)c3n2)cc1` the % of control [6] was 86% and the % of control [7] was 83%.
`Cc1cc(F)c(C(=O)Nc2cccc(-c3nncn3C(C)C)n2)cc1-n1cnc(C2CC2)c1` showed a % of control [8] of 100%.
For `COCC(=O)NC/C=C/c1ccc2ncnc(Nc3ccc(Oc4ccc(C)nc4)c(C)c3)c2c1` [CP-724714], the % of control [9] was 100%.
